The text below walks through data of US10336761B2, “TGFβ receptor antagonist” (BRISTOL-MYERS SQUIBB COMPANY, priority 2015, dated 2019).

HIS-TGFβR1 T204D, sequence (P36897 34-503 T204D): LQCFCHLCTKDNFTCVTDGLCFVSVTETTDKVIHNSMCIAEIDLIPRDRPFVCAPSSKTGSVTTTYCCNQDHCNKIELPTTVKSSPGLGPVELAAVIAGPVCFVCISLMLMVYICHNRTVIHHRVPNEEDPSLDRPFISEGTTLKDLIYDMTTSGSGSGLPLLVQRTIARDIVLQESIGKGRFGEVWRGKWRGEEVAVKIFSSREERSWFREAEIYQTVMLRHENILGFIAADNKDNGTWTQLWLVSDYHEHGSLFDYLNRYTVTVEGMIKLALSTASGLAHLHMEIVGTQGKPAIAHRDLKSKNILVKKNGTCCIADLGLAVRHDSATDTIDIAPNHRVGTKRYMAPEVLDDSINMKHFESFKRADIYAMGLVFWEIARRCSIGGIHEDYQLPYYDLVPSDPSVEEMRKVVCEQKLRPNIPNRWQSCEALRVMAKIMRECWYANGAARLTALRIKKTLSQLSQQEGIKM

This assay concerns the target HIS-TGFβR1 T204D (Homo sapiens (Human), UniProt P36897, T204D). Nature of the assay: HTRF probe-displacement assay, HIS-TGFβR1 T204D. The following applies: 1 hour at room temperature. It counts as binding.
`CC(C)NC(=O)c1cnccc1Nc1nc(-c2cccc(C(F)F)n2)nn2cccc12` [Example 194, 4-({2-[6-(difluoromethyl)pyridin-2-yl]pyrrolo[2,1-f][1,2,4]triazin-4-yl}amino)-N-(propan-2-yl)pyridine-3-carboxamide]: the IC50 (as a rule, the concentration that gives 50% inhibition) was 110 nM.
`O=C(NCc1cocn1)c1cnccc1Nc1nc(-c2cccc(C(F)F)n2)nn2cccc12` [Example 195, 4-({2-[6-(difluoromethyl)pyridin-2-yl]pyrrolo[2,1-f][1,2,4]triazin-4-yl}amino)-N-(1,3-oxazol-4-ylmethyl)pyridine-3-carboxamide] showed a half-inhibitory concentration (IC50) of 26 nM.
The same measure for `CC(C)(C)OC(=O)CNC(=O)c1cnccc1Nc1nc(-c2cccc(C(F)F)n2)nn2cccc12` [Example 196, tert-butyl 2-{[4-({2-[6-(difluoromethyl)pyridin-2-yl]pyrrolo[2,1-f][1,2,4]triazin-4-yl}amino)pyridin-3-yl]formamido}acetate]: 230 nM; for `O=C(NCc1ccn[nH]1)c1cnccc1Nc1nc(-c2cccc(C(F)F)n2)nn2cccc12` [Example 197, 4-({2-[6-(difluoromethyl)pyridin-2-yl]pyrrolo[2,1-f][1,2,4]triazin-4-yl}amino)-N-(1H-pyrazol-5-ylmethyl)pyridine-3-carboxamide]: 42 nM.
As for `O=C(N[C@@H]1CCC[C@@H]1O)c1cnccc1Nc1nc(-c2cccc(C(F)F)n2)nn2cccc12` [Example 198, 4-({2-[6-(difluoromethyl)pyridin-2-yl]pyrrolo[2,1-f][1,2,4]triazin-4-yl}amino)-N-[(1R,2S)-2-hydroxycyclopentyl]pyridine-3-carboxamide], the IC50 is 140 nM. This IC50 lies about 3.3-fold higher than the previous one.
`O=C(N[C@H]1CCC[C@@H]1O)c1cnccc1Nc1nc(-c2cccc(C(F)F)n2)nn2cccc12` [Example 199, 4-({2-[6-(difluoromethyl)pyridin-2-yl]pyrrolo[2,1-f][1,2,4]triazin-4-yl}amino)-N-[(1S,2S)-2-hydroxycyclopentyl]pyridine-3-carboxamide]: the IC50 was determined as 61 nM. Against the preceding compound, the IC50 is about 2.3-fold lower.
The same measure for `O=C(c1cnccc1Nc1nc(-c2cccc(C(F)F)n2)nn2cccc12)N1CCC(O)CC1` [Example 200, 1-[4-({2-[6-(difluoromethyl)pyridin-2-yl]pyrrolo[2,1-f][1,2,4]triazin-4-yl}amino)pyridine-3-carbonyl]piperidin-4-ol]: 3500 nM; for `O=C(NC1CCC(F)(F)CC1)c1cnccc1Nc1nc(-c2cccc(C(F)F)n2)nn2cccc12` [Example 201, N-(4,4-difluorocyclohexyl)-4-({2-[6-(difluoromethyl)pyridin-2-yl]pyrrolo[2,1-f][1,2,4]triazin-4-yl}amino)pyridine-3-carboxamide]: 410 nM; for `O=C(NCCC(F)(F)F)c1cnccc1Nc1nc(-c2cccc(C(F)F)n2)nn2cccc12` [Example 202, 4-({2-[6-(difluoromethyl)pyridin-2-yl]pyrrolo[2,1-f][1,2,4]triazin-4-yl}amino)-N-(3,3,3-trifluoropropyl)pyridine-3-carboxamide]: 140 nM.
`O=C(c1cnccc1Nc1nc(-c2cccc(C(F)F)n2)nn2cccc12)N1CCC(F)(F)CC1` [Example 203, N-{2-[6-(difluoromethyl)pyridin-2-yl]pyrrolo[2,1-f][1,2,4]triazin-4-yl}-3-(4,4-difluoropiperidine-1-carbonyl)pyridin-4-amine] yielded an IC50 of 750 nM.
In the case of `CCOC(=O)CCNC(=O)c1cnccc1Nc1nc(-c2cccc(C(F)F)n2)nn2cccc12` [Example 204, Ethyl 3-{[4-({2-[6-(difluoromethyl)pyridin-2-yl]pyrrolo[2,1-f][1,2,4]triazin-4-yl}amino)pyridin-3-yl]formamido}propanoate], the IC50 came out at 53 nM. Compared with the last compound, the IC50 is about 14-fold lower.
Take `COCc1noc(CNC(=O)c2cnccc2Nc2nc(-c3cccc(C(F)F)n3)nn3cccc23)n1` [Example 205, 4-({2-[6-(difluoromethyl)pyridin-2-yl]pyrrolo[2,1-f][1,2,4]triazin-4-yl}amino)-N-{[3-(methoxymethyl)-1,2,4-oxadiazol-5-yl]methyl}pyridine-3-carboxamide]: the 50% inhibitory concentration (IC50) is 22 nM. This IC50 is about 2.4-fold lower than that of the compound before.
The same measure for `COc1cccc(-c2nc(Nc3ccncc3CO)c3cccn3n2)n1` [Example 206, (4-{[2-(6-methoxypyridin-2-yl)pyrrolo[2,1-f][1,2,4]triazin-4-yl]amino}pyridin-3-yl)methanol]: 9.2 nM.
Compound `COc1cccc(-c2nc(Nc3ccncc3F)c3cc(CNCC(C)(C)O)cn3n2)n1` [Example 207, 1-[({4-[(3-fluoropyridin-4-yl)amino]-2-(6-methoxypyridin-2-yl)pyrrolo[2,1-f][1,2,4]triazin-6-yl}methyl)amino]-2-methylpropan-2-ol] registered a concentration for half-maximal inhibition (IC50) of 1700 nM.
`COc1cccc(-c2nc(Nc3ccncc3F)c3cc(CNC[C@@H](F)C(C)(C)O)cn3n2)n1` [Example 208, (3R)-3-fluoro-4-[({4-[(3-fluoropyridin-4-yl)amino]-2-(6-methoxypyridin-2-yl)pyrrolo[2,1-f][1,2,4]triazin-6-yl}methyl)amino]-2-methylbutan-2-ol] gave an IC50 of 880 nM.
In turn, `COc1cccc(-c2nc(Nc3ccncc3F)c3cc(CNCCCN4CCS(=O)(=O)CC4)cn3n2)n1` [Example 209, 4-{3-[({4-[(3-fluoropyridin-4-yl)amino]-2-(6-methoxypyridin-2-yl)pyrrolo[2,1-f][1,2,4]triazin-6-yl}methyl)amino]propyl}-1,4-thiomorpholine-1,1-dione] yielded an IC50 of 7700 nM.
The same measure for `C=Cc1cc2c(Nc3ccncc3F)nc(-c3cccc(OC)n3)nn2c1` [Example 210, N-[6-ethenyl-2-(6-methoxypyridin-2-yl)pyrrolo[2,1-f][1,2,4]triazin-4-yl]-3-fluoropyridin-4-amine]: 30 nM.
In the case of `COc1cccc(-c2nc(Nc3ccncc3F)c3cc(/C=C/CCO)cn3n2)n1` [Example 211, (3E)-4-{4-[(3-fluoropyridin-4-yl)amino]-2-(6-methoxypyridin-2-yl)pyrrolo[2,1-f][1,2,4]triazin-6-yl}but-3-en-1-ol], the IC50 turned out to be 30 nM.
In the case of `COc1cccc(-c2nc(Nc3ccncc3NC(=O)CN3CCOCC3)c3cccn3n2)n1` [Example 212, N-(4-{[2-(6-methoxypyridin-2-yl)pyrrolo[2,1-f][1,2,4]triazin-4-yl]amino}pyridin-3-yl)-2-(morpholin-4-yl)acetamide], the IC50 came out at 3000 nM. Against the preceding compound, the IC50 is about 100-fold higher.
The same measure for `Fc1cccc(-c2nc(Nc3ccncc3)c3cccn3n2)n1` [Example 213, N-[2-(6-fluoropyridin-2-yl)pyrrolo[2,1-f][1,2,4]triazin-4-yl]pyridin-4-amine]: 14 nM; for `CSc1nccc(-c2nc(Nc3ccncc3)c3cccn3n2)n1` [Example 215, N-{2-[2-(methylsulfanyl)pyrimidin-4-yl]pyrrolo[2,1-f][1,2,4]triazin-4-yl}pyridin-4-amine]: 6.9 nM.
The same measure for `CCOC(=O)c1cc2c(Nc3ccncc3)nc(-c3cccc(C)n3)nn2c1` [Example 216, Ethyl 2-(6-methylpyridin-2-yl)-4-[(pyridin-4-yl)amino]pyrrolo[2,1-f][1,2,4]triazine-6-carboxylate]: 33 nM; for `Cc1cccc(-c2nc(Nc3ccncc3)c3cc(C(=O)Nc4ccccc4)cn3n2)n1` [Example 217, 2-(6-methylpyridin-2-yl)-N-phenyl-4-[(pyridin-4-yl)amino]pyrrolo[2,1-f][1,2,4]triazine-6-carboxamide]: 7.7 nM; for `Cc1cccc(-c2nc(Nc3ccncc3)c3cc(C(=O)N(C)C)cn3n2)n1` [Example 218, N,N-dimethyl-2-(6-methylpyridin-2-yl)-4-[(pyridin-4-yl)amino]pyrrolo[2,1-f][1,2,4]triazine-6-carboxamide]: 130 nM.
`Cc1cccc(-c2nc(Nc3ccncc3)c3cc(C(N)=O)cn3n2)n1` [Example 219, 2-(6-methylpyridin-2-yl)-4-[(pyridin-4-yl)amino]pyrrolo[2,1-f][1,2,4]triazine-6-carboxamide] came in with an IC50 of 10 nM.
`CNC(=O)c1cc2c(Nc3ccncc3)nc(-c3cccc(C)n3)nn2c1` [Example 220, N-methyl-2-(6-methylpyridin-2-yl)-4-[(pyridin-4-yl)amino]pyrrolo[2,1-f][1,2,4]triazine-6-carboxamide] displayed an IC50 of 11 nM.
`Cc1cccc(-c2nc(Nc3ccncc3C(=O)NCCCN3CCCC3)c3cccn3n2)n1` [Example 221, 4-{[2-(6-methylpyridin-2-yl)pyrrolo[2,1-f][1,2,4]triazin-4-yl]amino}-N-[3-(pyrrolidin-1-yl)propyl]pyridine-3-carboxamide]: the IC50 is 4 nM.
Consider `Cc1cccc(-c2nc(Nc3ccncc3OCCCN3CCOCC3)c3cccn3n2)n1` [Example 222, N-[2-(6-methylpyridin-2-yl)pyrrolo[2,1-f][1,2,4]triazin-4-yl]-3-[3-(morpholin-4-yl)propoxy]pyridin-4-amine], for which the IC50 amounted to 67 nM.
`NC(=O)c1cnccc1Nc1nc(-c2ccc(F)c(C(F)F)n2)nn2cccc12` [Example 224, 4-({2-[6-(difluoromethyl)-5-fluoropyridin-2-yl]pyrrolo[2,1-f][1,2,4]triazin-4-yl}amino)pyridine-3-carboxamide] returned an IC50 of 1.4 nM. This IC50 lies about 48-fold lower than the previous one.
The same measure for `CC(=O)Nc1cc(Nc2nc(-c3cccc(C(F)F)n3)nn3cccc23)c(F)cn1` [Example 225, N-[4-({2-[6-(difluoromethyl)pyridin-2-yl]pyrrolo[2,1-f][1,2,4]triazin-4-yl}amino)-5-fluoropyridin-2-yl]acetamide]: 5.1 nM.
Take `CC(=O)Nc1cc(Nc2nc(-c3ccc(F)cn3)nn3cccc23)ccn1` [Example 227, N-(4-{[2-(5-fluoropyridin-2-yl)pyrrolo[2,1-f][1,2,4]triazin-4-yl]amino}pyridin-2-yl)acetamide]: the IC50 stood at 3.6 nM.
As to `NC(=O)c1cnccc1Nc1nc(-c2cccc(C(F)F)n2)nn2cccc12` [Example 228, 4-({2-[6-(difluoromethyl)pyridin-2-yl]pyrrolo[2,1-f][1,2,4]triazin-4-yl}amino)pyridine-3-carboxamide], the half-maximal inhibitory concentration (IC50) came out at 1.6 nM. This IC50 is about 2.2-fold lower than that of the compound before.
For the compound `CC(=O)Nc1nccc(Nc2nc(-c3cccc(C(F)F)n3)nn3cccc23)c1F` [Example 229, N-[4-({2-[6-(difluoromethyl)pyridin-2-yl]pyrrolo[2,1-f][1,2,4]triazin-4-yl}amino)-3-fluoropyridin-2-yl]acetamide], the IC50 was determined as 5.1 nM.
